From the supplement of paper PMC12463676, “Small-molecule dissolution of stress granules by redox modulation benefits ALS models” (Nature Chemical Biology, 2025)

Tests used:
[1] = compound: O=[As]([O-])(O)O.[K+] [potassium arsenate]; assay: thermal stability z-score vs DMSO; higher = more thermally stabilized by treatment; settings: HeLa; arsenate concentration 1 mM
Protocol: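 Cellular thermal proteome profiling in HeLa cells treated with 1 mM arsenate for 1 h (DMSO pretreatment), heated to ten temperatures (37-66.3 °C). Soluble protein was quantified by TMT mass spectrometry relative to DMSO controls; the thermal stability score was transformed to a z-score; mean of n = 3 experiments.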

[2] = compound: NC(=O)CCCCC1CCSS1 [lipoamide]; assay: as above; settings: HeLa, lipoamide concentration 100 µM
Protocol: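 Cellular thermal proteome profiling in HeLa cells. Cells were treated with 100 µM lipoamide for 1 h, with or without 1 mM arsenate for a further 1 h, then heated to ten temperatures (37-66.3 °C), and soluble protein was quantified by TMT mass spectrometry relative to 0.1% DMSO controls. The thermal stability score (sum of log2 fold changes minus the abundance score) was transformed to a z-score; mean of n = 3 experiments.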

[3] = arsenate co-treatment: 1 mM arsenate 1 h
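Further: each temperature applied for 3 min, abundance score taken as mean log2 fold change at the two lowest temperatures, z-score obtained by mean subtraction and division by SD.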

Sequence of UniProt Q9Y281 (Q9Y281 whole entry): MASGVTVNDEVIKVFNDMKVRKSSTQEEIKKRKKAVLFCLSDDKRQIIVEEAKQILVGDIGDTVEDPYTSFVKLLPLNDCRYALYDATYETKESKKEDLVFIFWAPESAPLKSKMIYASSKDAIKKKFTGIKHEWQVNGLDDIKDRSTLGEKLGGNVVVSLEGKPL
Sequence of UniProt Q8IWA5 (Q8IWA5 whole entry): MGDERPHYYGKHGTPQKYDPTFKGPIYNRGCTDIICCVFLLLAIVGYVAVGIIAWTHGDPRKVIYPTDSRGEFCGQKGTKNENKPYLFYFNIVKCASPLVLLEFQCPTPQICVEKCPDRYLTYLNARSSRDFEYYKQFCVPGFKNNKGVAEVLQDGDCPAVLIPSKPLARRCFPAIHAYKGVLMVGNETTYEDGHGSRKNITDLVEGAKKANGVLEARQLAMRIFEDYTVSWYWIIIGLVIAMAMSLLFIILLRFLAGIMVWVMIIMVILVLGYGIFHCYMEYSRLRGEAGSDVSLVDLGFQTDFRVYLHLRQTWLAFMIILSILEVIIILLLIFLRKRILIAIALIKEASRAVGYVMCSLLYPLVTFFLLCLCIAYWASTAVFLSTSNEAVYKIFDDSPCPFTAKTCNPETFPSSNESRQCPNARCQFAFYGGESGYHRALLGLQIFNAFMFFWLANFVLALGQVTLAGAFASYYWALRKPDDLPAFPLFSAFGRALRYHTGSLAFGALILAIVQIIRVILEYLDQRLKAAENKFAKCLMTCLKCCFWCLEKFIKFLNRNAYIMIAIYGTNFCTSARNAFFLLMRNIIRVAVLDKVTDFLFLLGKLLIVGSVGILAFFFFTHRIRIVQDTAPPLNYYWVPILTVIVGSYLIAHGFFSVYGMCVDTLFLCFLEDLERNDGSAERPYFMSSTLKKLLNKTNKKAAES
Sequence of UniProt Q96DH6 (Q96DH6 whole entry): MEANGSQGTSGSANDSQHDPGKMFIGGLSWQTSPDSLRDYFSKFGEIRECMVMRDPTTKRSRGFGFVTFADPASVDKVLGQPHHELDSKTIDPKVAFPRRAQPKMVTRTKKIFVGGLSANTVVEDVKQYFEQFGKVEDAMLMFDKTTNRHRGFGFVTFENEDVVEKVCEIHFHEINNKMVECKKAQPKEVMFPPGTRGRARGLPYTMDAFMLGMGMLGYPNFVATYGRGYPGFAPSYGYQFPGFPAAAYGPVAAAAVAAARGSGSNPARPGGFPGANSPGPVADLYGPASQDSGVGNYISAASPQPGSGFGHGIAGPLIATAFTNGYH
Sequence of UniProt O43818 (O43818 whole entry): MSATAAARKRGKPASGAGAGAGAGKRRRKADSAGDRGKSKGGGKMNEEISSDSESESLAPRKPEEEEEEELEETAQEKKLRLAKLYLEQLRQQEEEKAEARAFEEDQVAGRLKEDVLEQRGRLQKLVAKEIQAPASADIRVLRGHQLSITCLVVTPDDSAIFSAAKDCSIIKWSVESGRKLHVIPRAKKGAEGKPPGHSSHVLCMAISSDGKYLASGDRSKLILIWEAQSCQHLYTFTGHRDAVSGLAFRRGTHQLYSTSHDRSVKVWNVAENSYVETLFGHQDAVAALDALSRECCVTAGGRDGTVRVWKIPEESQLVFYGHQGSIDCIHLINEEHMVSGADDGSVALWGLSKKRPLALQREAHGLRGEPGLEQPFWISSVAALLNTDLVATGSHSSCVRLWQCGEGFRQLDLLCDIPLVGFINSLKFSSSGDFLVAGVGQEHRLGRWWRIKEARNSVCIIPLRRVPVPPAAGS
Sequence of UniProt P34059 (P34059 whole entry): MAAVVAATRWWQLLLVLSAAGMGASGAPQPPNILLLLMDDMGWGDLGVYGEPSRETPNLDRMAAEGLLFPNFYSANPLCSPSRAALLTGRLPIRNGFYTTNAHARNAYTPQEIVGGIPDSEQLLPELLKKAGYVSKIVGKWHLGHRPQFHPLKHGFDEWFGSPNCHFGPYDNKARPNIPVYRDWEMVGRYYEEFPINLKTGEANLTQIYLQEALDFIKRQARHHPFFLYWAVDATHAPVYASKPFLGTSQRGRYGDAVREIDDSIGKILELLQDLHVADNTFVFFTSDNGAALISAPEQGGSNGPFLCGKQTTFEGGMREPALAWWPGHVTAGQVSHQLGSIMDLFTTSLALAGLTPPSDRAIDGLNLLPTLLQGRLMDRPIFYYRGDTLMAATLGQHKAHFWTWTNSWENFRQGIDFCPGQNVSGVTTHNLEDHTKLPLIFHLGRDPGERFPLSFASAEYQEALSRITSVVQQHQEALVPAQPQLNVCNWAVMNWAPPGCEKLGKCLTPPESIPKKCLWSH
Sequence of UniProt P32019 (P32019 whole entry): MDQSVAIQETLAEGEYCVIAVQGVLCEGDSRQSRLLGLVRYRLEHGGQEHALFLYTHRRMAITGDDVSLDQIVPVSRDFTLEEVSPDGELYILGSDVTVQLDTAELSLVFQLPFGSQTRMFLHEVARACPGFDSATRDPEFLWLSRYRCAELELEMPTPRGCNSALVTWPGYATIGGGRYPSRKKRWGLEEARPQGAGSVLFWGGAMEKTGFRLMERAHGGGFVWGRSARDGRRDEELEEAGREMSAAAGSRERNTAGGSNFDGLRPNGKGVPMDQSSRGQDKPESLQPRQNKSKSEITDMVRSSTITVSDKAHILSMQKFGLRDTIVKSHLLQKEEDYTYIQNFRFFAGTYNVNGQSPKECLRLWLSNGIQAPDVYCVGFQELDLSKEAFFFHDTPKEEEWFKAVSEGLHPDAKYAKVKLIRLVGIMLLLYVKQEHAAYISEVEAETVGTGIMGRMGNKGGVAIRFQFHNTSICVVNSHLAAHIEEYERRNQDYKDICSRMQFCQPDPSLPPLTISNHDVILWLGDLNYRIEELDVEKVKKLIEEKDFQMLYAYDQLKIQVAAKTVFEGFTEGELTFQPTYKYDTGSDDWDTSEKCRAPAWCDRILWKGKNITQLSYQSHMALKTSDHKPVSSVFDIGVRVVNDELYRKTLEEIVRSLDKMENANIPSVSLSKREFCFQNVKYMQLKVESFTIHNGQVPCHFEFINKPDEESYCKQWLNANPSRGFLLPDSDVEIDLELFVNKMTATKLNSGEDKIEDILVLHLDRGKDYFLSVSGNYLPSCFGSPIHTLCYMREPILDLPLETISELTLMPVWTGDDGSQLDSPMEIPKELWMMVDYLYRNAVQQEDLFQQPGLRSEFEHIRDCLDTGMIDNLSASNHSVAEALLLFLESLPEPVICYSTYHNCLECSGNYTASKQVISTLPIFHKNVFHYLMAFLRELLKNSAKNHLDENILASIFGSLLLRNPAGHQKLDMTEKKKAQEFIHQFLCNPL
Sequence of UniProt Q9Y696 (Q9Y696 whole entry): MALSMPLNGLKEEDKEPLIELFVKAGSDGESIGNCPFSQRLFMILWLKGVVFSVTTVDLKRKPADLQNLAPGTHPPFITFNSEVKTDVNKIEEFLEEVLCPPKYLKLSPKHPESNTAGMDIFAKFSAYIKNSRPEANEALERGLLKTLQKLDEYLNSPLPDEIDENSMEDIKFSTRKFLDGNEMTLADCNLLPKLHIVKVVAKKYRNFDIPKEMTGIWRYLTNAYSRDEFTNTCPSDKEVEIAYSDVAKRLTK
Sequence of UniProt Q9BVW5 (Q9BVW5 whole entry): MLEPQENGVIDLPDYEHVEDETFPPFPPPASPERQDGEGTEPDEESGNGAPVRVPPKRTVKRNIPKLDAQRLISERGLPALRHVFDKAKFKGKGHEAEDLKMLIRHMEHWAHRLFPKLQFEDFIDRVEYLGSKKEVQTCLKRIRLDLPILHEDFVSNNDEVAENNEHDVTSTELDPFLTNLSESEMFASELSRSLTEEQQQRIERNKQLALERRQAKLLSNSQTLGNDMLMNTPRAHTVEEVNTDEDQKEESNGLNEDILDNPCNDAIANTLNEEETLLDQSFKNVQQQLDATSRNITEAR
Sequence of UniProt Q8IYI6 (Q8IYI6 whole entry): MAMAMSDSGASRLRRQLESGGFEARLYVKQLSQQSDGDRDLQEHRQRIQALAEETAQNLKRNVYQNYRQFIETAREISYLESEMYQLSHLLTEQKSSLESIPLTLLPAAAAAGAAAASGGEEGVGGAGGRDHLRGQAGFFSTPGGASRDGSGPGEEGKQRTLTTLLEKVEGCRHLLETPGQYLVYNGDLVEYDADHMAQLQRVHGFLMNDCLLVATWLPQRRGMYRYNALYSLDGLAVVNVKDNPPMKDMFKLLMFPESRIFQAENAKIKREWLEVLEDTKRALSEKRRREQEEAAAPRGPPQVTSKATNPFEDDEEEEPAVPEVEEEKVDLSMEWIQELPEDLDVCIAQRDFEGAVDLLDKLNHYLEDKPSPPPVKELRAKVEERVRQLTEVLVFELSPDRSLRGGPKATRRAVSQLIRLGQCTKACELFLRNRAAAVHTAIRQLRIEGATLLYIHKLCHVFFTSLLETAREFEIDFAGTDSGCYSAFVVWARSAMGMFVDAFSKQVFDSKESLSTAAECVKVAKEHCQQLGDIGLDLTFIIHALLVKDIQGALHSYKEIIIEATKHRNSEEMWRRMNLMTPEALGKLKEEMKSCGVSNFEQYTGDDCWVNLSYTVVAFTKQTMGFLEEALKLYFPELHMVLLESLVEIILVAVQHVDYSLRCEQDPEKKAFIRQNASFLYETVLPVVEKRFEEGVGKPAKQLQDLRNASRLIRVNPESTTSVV
Sequence of UniProt Q9UEE5 (Q9UEE5 whole entry): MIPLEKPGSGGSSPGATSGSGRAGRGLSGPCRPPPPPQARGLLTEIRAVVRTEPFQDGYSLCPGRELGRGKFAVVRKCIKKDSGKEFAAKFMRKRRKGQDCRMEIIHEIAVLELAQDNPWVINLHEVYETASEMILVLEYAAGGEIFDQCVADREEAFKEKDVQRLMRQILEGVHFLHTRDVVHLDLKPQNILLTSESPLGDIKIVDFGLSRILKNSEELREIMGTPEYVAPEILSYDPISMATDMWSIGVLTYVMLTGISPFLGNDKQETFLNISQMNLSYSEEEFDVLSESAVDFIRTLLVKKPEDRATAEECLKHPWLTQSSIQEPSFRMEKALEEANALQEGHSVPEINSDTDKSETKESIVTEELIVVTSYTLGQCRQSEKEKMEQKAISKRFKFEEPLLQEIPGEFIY
Sequence of UniProt O00483 (O00483 whole entry): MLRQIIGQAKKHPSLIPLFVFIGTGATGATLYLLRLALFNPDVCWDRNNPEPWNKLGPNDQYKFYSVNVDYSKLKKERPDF

| Target | thermal stability z-score [1] | thermal stability z-score [2, 3] | thermal stability z-score ([2]; arsenate co-treatment: none) |
| --- | --- | --- | --- |
| NDUFA2 (UniProt O43678) | 0.396 | -0.29 | -0.00199 |
| TRAPPC4 (UniProt Q9Y296) | -0.0725 | -0.271 | 0.0129 |
| INPP5B (UniProt P32019) | -0.211 | -0.146 | -0.514 |
| MICU2 (UniProt Q8IYU8) | 0.583 | -0.422 | -0.315 |
| ASS1 (UniProt P00966) | -1.34 | -0.416 | 0.107 |
| RCC2 (UniProt Q9P258) | -0.0515 | -0.997 | -0.671 |
| MRPL22 (UniProt Q9NWU5) | 0.467 | 0.32 | 0.464 |
| CLIC4 (UniProt Q9Y696) | -0.572 | 0.264 | 0.427 |
| STK17A (UniProt Q9UEE5) | 0.0862 | -0.0669 | -0.0755 |
| LAS1L (UniProt Q9Y4W2) | -0.116 | -0.0675 | -0.132 |
| HSP90AA4P (UniProt Q58FG1) | -2.39 | -1.84 | -1.53 |
| NAT6 (UniProt Q93015) | -0.338 | 0.0786 | -0.349 |
| SMARCD1 (UniProt Q96GM5) | -0.164 | -0.0223 | 0.0841 |
| RPL24 (UniProt P83731) | -0.927 | 0.228 | -0.084 |
| SLC44A2 (UniProt Q8IWA5) | -0.517 | -0.0733 | -0.171 |
| IRS2 (UniProt Q9Y4H2) | -1.42 | -0.525 | -0.112 |
| NAGK (UniProt Q9UJ70) | -0.921 | 0.0756 | -0.796 |
| OSBPL11 (UniProt Q9BXB4) | 0.989 | -0.766 | -0.267 |
| RRP9 (UniProt O43818) | -0.755 | -0.195 | 0.108 |
| YBX3 (UniProt P16989) | -0.672 | 0.153 | -0.0445 |
| BLOC1S2 (UniProt Q6QNY1) | 1.61 | 2.75 | 1.1 |
| ECD (UniProt O95905) | -0.232 | -0.47 | -0.00943 |
| HNRNPUL2 (UniProt Q1KMD3) | -0.392 | 0.105 | 0.057 |
| DCUN1D5 (UniProt Q9BTE7) | -0.507 | -0.0389 | 0.215 |
| FGD4 (UniProt Q96M96) | -0.203 | 0.0849 | -0.0145 |
| NDUFA4 (UniProt O00483) | 0.532 | 0.551 | 0.887 |
| UCKL1 (UniProt Q9NWZ5) | 0.0426 | -0.158 | -0.483 |
| PQBP1 (UniProt O60828) | -0.0247 | 0.533 | -0.261 |

| Target | thermal stability z-score [1] | thermal stability z-score [2, 3] | thermal stability z-score ([2]; arsenate co-treatment: none) |
| --- | --- | --- | --- |
| ATP11C (UniProt Q8NB49) | -1.13 | -0.348 | 0.254 |
| EXOC8 (UniProt Q8IYI6) | -0.106 | -0.0845 | 0.0172 |
| EPS15L1 (UniProt Q9UBC2) | 0.4 | 0.0401 | 0.0523 |
| EIF2S1 (UniProt P05198) | 0.0905 | -0.375 | -0.142 |
| SUPV3L1 (UniProt Q8IYB8) | -0.478 | -0.171 | -0.116 |
| DCLK2 (UniProt Q8N568) | 0.0241 | -0.19 | 0.0433 |
| AGO2 (UniProt Q9UKV8) | -0.204 | 0.826 | 0.402 |
| AP4M1 (UniProt O00189) | -0.173 | 0.0799 | -0.0232 |
| HERC4 (UniProt Q5GLZ8) | 0.726 | 0.298 | -0.11 |
| HIBADH (UniProt P31937) | -1.36 | -1.36 | -0.391 |
| LYRM7 (UniProt Q5U5X0) | -0.0732 | 0.507 | 0.358 |
| RBM27 (UniProt Q9P2N5) | -0.145 | -0.453 | -0.373 |
| ASNA1 (UniProt O43681) | -0.178 | -0.234 | -0.285 |
| ALG5 (UniProt Q9Y673) | 0.347 | 0.39 | -0.1 |
| BCKDHB (UniProt P21953) | 1.11 | 0.134 | 0.149 |
| PDP1 (UniProt Q9P0J1) | -0.0616 | 0.0374 | -0.191 |
| TIPIN (UniProt Q9BVW5) | 0.349 | -0.58 | 0.146 |
| INTS7 (UniProt Q9NVH2) | -0.0595 | 0.874 | -0.103 |
| CLP1 (UniProt Q92989) | -0.0689 | -0.189 | -0.158 |
| PPP2R1A (UniProt P30153) | -1.48 | 0.108 | 0.121 |
| CXXC1 (UniProt Q9P0U4) | 0.00172 | -0.00204 | 0.187 |
| MSI2 (UniProt Q96DH6) | 0.082 | 0.43 | 0.136 |
| MADD (UniProt Q8WXG6) | 1.3 | 0.198 | 1.4 |
| SDHA (UniProt P31040) | -1.17 | -0.493 | -0.532 |
| CFL2 (UniProt Q9Y281) | -0.466 | 0.497 | 0.000804 |
| PDIA4 (UniProt P13667) | 0.648 | -2.99 | -2.13 |
| GALNS (UniProt P34059) | 0.274 | 0.346 | 0.41 |
